Reference: PubChem BioAssay AID540306 (Sanford-Burnham Center for Chemical Genomics, 2011)
Active and inactive are the calls of the source.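 Rule for the calls: active = mean EC50 of 20 µM or lower; inactive = the rest.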

These molecules were tested against CHO-CHOP luciferase reporter, UPR apoptotic arm activation (assay: PERK-eIF2a-CHOP apoptotic UPR arm activators, SAR follow-up, counter-screen for UPR adaptive arm activator project, CHO-CHOP cells, luminescence (AID 540306)).
With `Cc1cc(=O)[nH]c(Nc2nc(C)c3ccccc3n2)n1` the EC50 was > 80 µM (inactive).
`Cc1nc(Nc2nccc(-c3ccccc3)n2)nc2ccccc12` was tested, and the EC50 was “inactive”.
For `Cc1nc(Nc2ncccn2)nc2ccccc12`, the EC50 was > 80 µM (inactive).
In the case of `Cc1ccnc(Nc2ncccn2)n1`, the EC50 is reported as > 80 µM (inactive).
For `COc1cc(-c2ccccc2)nc(Nc2nc(C)c3ccccc3n2)n1`, the EC50 was > 80 µM (inactive).
`Cc1ccnc(Nc2nc(-c3ccccc3)cc(=O)[nH]2)n1` was tested, and the EC50 was > 80 µM (inactive).
For `Cc1cc(-c2ccccc2)nc(Nc2nc(C)c3ccccc3n2)n1`, the EC50 was > 80 µM (inactive).
In the case of `Cc1nc(Nc2nc(-c3ccccc3)cc(=O)[nH]2)nc2ccccc12`, the EC50 is reported as > 80 µM (inactive).
